“And” between values parts separate entries of the source, which are not always exact repeats. Equal entries are not always repeated. Where two headings read alike, the source gives them in different places.
What was measured:
UACC-62 = experiment: NCI screen, UACC-62 (Melanoma)
Procedure: (§1) The compounds of this invention were also tested against the panel of 60 human cancer cell lines at the National Cancer Institute, Bethesda, Md. […] The cytrotoxicity studies were conducted using a 48 hour exposure, and measuring the optical density of sulforhodamide B-derived color.

MCF7/ADR-RES = experiment: NCI screen, MCF7/ADR-RES (Breast Cancer); type: cell-based, human; details: MCF7/ADR-RES
Procedure: as §1

TK-10 = experiment: NCI screen, TK-10 (Renal Cancer)
Procedure: as §1

SW-620 = experiment: NCI screen, SW-620 (Colon Cancer); type: cell-based, human
Procedure: as §1

CAKI-1 = experiment: NCI screen, CAKI-1 (Renal Cancer)
Procedure: as §1

MOLT-4 = experiment: NCI screen, MOLT-4 (Leukemia)
Procedure: as §1

CCRF-CEM = experiment: NCI screen, CCRF-CEM (Leukemia)
Procedure: as §1

HT29 = experiment: NCI screen, HT29 (Colon Cancer)
Procedure: as §1

EKVX = experiment: NCI screen, EKVX (Non-Small Cell Lung Cancer)
Procedure: as §1

MDA-MB-231/ATCC = details: MDA-MB-231/ATCC
ACHN = type: cell-based, human

SMILES: O=C(Nc1cc(O)ccc1CCCl)c1cc2cc(NC(=O)c3cc4ccccc4o3)ccc2[nH]1 [Compound 1, 4-(2-Chloroethyl)-3-[5-(5-benzofuran-2-carboxamido)indole-2-carboxamido]phenol]
- Percent Growth (UACC-62; Log10 Concentration −7.0): 104%
- Percent Growth (UACC-62; Log10 Concentration −8.0): 100%
- GI50 (MCF7/ADR-RES): 1650 nM
- TGI (MCF7/ADR-RES): 3.79E−06 Molar
- Percent Growth (MCF7/ADR-RES; Log10 Concentration −4.0): −55%
- Percent Growth (MCF7/ADR-RES; Log10 Concentration −5.0): −58%
- Percent Growth (MCF7/ADR-RES; Log10 Concentration −6.0): 80%
- Percent Growth (MCF7/ADR-RES; Log10 Concentration −7.0): 97%
- Percent Growth (MCF7/ADR-RES; Log10 Concentration −8.0): 93%
- Percent Growth (TK-10): −31%
- GI50 (TK-10; TK-10): 2450 nM
- TGI (TK-10; TK-10): 5.85E−06 Molar
- Percent Growth (TK-10; TK-10, Log10 Concentration −4.0): −95%
- Percent Growth (TK-10; TK-10, Log10 Concentration −6.0): 101%
- Percent Growth (TK-10; TK-10, Log10 Concentration −7.0): 98%
- Percent Growth (TK-10; TK-10, Log10 Concentration −8.0): 104%
- GI50 (SW-620): 2010 nM
- TGI (SW-620): 8.19E−06 Molar
- Percent Growth (SW-620; Log10 Concentration −4.0): −66%
- Percent Growth (SW-620; Log10 Concentration −8.0): 96%
- Percent Growth (CAKI-1): 87% and 82%
- GI50 (CAKI-1; CAKI-1): 2300 nM
- TGI (CAKI-1; CAKI-1): 7.19E−06 Molar
- Percent Growth (CAKI-1; CAKI-1, Log10 Concentration −4.0): −95%
- Percent Growth (CAKI-1; CAKI-1, Log10 Concentration −5.0): −14%
- Percent Growth (CAKI-1; CAKI-1, Log10 Concentration −8.0): 95%
- GI50 (MOLT-4): 1140 nM
- Percent Growth (MOLT-4; Log10 Concentration −4.0): 4%
- GI50 (CCRF-CEM): 1260 nM
- TGI (CCRF-CEM): 5.28E−06 Molar
- Percent Growth (CCRF-CEM; Log10 Concentration −4.0): −13%
- CC50 (RPMI-8226): > 100000 nM
- GI50 (RPMI-8226): 1860 nM
- Percent Growth (RPMI-8226): −41%
- TGI (RPMI-8226): 5.59E−06 Molar
- GI50 (NCI-H322M): 2830 nM
- Percent Growth (NCI-H322M): 93%
- TGI (NCI-H322M): 9.60E−06 Molar
- GI50 (HT29): 2290 nM
- TGI (HT29): 1.15E−05 Molar
- Percent Growth (HT29; Log10 Concentration −4.0): −51%
- Percent Growth (HT29; Log10 Concentration −8.0): 96%
- GI50 (EKVX): 1780 nM
- TGI (EKVX): 4.41E−06 Molar
- Percent Growth (EKVX; Log10 Concentration −4.0): −80%
- Percent Growth (EKVX; Log10 Concentration −7.0): 96%
- GI50 (MDA-MB-231/ATCC): 2430 nM
- TGI (MDA-MB-231/ATCC): 7.10E−06 Molar
- Percent Growth (MDA-MB-231/ATCC; Log10 Concentration −4.0): −65%
- Percent Growth (MDA-MB-231/ATCC; Log10 Concentration −5.0): −16%
- Percent Growth (MDA-MB-231/ATCC; Log10 Concentration −6.0): 92%
- Percent Growth (MDA-MB-231/ATCC; Log10 Concentration −7.0): 97%
- Percent Growth (MDA-MB-231/ATCC; Log10 Concentration −8.0): 94%
- GI50 (ACHN): 1530 nM
- TGI (ACHN): 5.55E−06 Molar
